{"source": "paper PMC7146544", "about": "“Dual Plasmepsin-Targeting Antimalarial Agents Disrupt Multiple Stages of the Malaria Parasite Life Cycle” (Cell Host & Microbe, 2020)", "key": {"[1]": {"assay": "Bioanalytical determination of WM382 in mouse blood by LC-MS/MS", "format": "in vivo", "conditions": "SCID (huSCID), whole blood, po, huSCID mice", "procedure": "Serial samples of peripheral blood (25 μL) were taken from the mice of the efficacy experiment in the murine P. falciparum SCID model by tail puncture at 1, 2, 4, 6 and 24 h post first and last drug administration. The samples were immediately lysed by mixing with 25 μL of water, immediately frozen on dry ice and stored at −80°C until bioanalysis (carried out at SBQ, Reinach, Switzerland). The compounds were extracted from 10 μL of each lysate with 50 μL acetonitrile containing the internal standards (reserpine at 100 ng/mL). After a centrifugation step at 50000 g for 10 min, an aliquot of 50 μL of the supernatant was transferred to an autosampler vial and analyzed. The compounds were quantified by LC-MS/MS in the selected reaction monitoring mode using HESI ionization in positive ion mode, using a TSQ Quantum Access Mass spectrometer (Thermo Fisher Scientific, San Jose, CA, USA). The compound concentration versus time data was determined."}, "P. berghei sporozoites": {"system": "P. berghei sporozoites", "assay": "In vivo analysis of P. berghei liver parasite growth and transition to blood infection", "parameters": "species or system Plasmodium berghei", "procedure": "Female BALB/c mice were infected with PbmCherryLuci sporozoites by either intravenous injection or infectious mosquito bite challenge. Mice (infected by either route) received either no treatment or were treated orally with WM382 (prepared as previously described) at doses and h post infection (hpi) as indicated. For i.v. injections, freshly isolated salivary gland sporozoites were filtered through glass wool to remove debris before 40,000 sporozoites were resuspended in 200 μL Schneider’s Insect Media immediately prior to injection. For infection by mosquito bite, the percent of mosquitoes that contained oocysts was used to place 5 infected mosquitoes in individual feeding cups (for example, if 83% of mosquitoes in the batch had oocysts then 6 mosquitoes were placed in each cup). Mice were anesthetised using ketamine/xylazine and placed on individual feeding cups to begin the infection. Mosquitoes were allowed to feed on the mice for 15 min and mice were rotated between feeding cups every min to promote probing and ensure that all mice were equally exposed to infectious mosquito bites. From day 3 – 30 post infection mice were monitored daily for the presence of parasites in Giemsa stained thin blood smears and considered to be protected from blood infection if they remained negative through this period.\nIn addition to monitoring thin blood smears, luciferase activity was used to measure liver infection (52 hpi), liver egress (55 hpi) and transition to initial blood infection (65 hpi) in mice infected intravenously. Briefly, mice were injected i.p. with 200 μL XenoLight D-Luciferin (PerkinElmer) and returned to their cage for 5 min prior to anesthesia by isofluorane inhalation for a further 5 min. Between 10 – 15 min post injection of D-luciferin, mice were maintained under isofluorane anesthesia and bioluminescent signal collected using an IVIS Lumina S5 system (PerkinElmer) with a medium binning factor and 3 min integration time. Bioluminescence emanating from a region of interest (ROI) covering the liver region (52 and 55 hpi) or whole animal (65 hpi) was quantified using Living Image software version 4.7.2 (PerkinElmer) and expressed as the total flux in photons/second (p/s). Background flux was measured using an identically sized ROI placed over the lower pelvic region below the liver (52 and 55 hpi) or uninfected mice (65 hpi) and is expressed as the limit of detection (LOD). The parasitemia of the first round of erythrocytic infection was measured at 65 hpi using a LSRFortessa X20 (Becton Dickinson) flow cytometer. Briefly, a drop of whole blood was collected from the tail in 200 μL human tonicity (HT) PBS and immediately analyzed. To identify infected blood cells, mCherry signal intensity was plotted against GFP signal intensity as a decoy reporter. The number of mCherry^+ / GFP^— events are reported per 1 × 10^6 whole blood cells with blood from uninfected mice used as a negative control."}, "P. berghei": {"system": "P. berghei", "assay": "Dose ranging test for P. berghei infection in mice", "format": "in vivo, Plasmodium berghei", "procedure": "Control mice were treated orally with chloroquine for 4 days under q.d. dosing regimen at 10 mpk/day. From day 2 to 30 post infection, parasitemia was measured daily by flow cytometry and microscopy, as described above. Survival of animals to day 30 post infection, with no detectable parasites in the peripheral blood, were considered to be cured (i.e., 100% efficacy)."}, "[2]": {"conditions": "i.v. sporozoites, 2 × 20 mpk oral"}, "[3]": {"conditions": "i.v. sporozoites, oral 20 mpk or 100 mpk b.i.d. at 36 and 48 hpi"}, "[4]": {"conditions": "mosquito bite infection, 20 mpk at 36 hpi"}, "[5]": {"conditions": "mosquito bite infection, 50 mpk at 36 hpi"}}, "note": "Where two headings read alike, the source gives them in different places.", "data": [{"compound": "CCC1(CC)CC(=O)N([C@@H]2CCOc3ccc(C(=O)N[C@H]4CC(C)(C)Oc5ccccc54)cc32)C(=N)N1", "note": "[WM382]", "values": [{"measurement": "AUC", "setting": "[1]; 1 mg/kg, oral daily dose 1 mg/kg, read-out: AUC dose 1", "value": "0.06 ± 0.03", "unit": "µM·h"}, {"measurement": "AUC", "setting": "[1]; 1 mg/kg, oral daily dose 1 mg/kg, read-out: AUC dose 4", "value": "0.1 ± 0.04", "unit": "µM·h"}, {"measurement": "AUC", "setting": "[1]; 3 mg/kg, oral daily dose 3 mg/kg, read-out: AUC dose 1", "value": "0.5 ± 0.18", "unit": "µM·h"}, {"measurement": "AUC", "setting": "[1]; 3 mg/kg, oral daily dose 3 mg/kg, read-out: AUC dose 4", "value": "0.37 ± 0.21", "unit": "µM·h"}, {"measurement": "AUC", "setting": "[1]; 10 mg/kg, oral daily dose 10 mg/kg, read-out: AUC dose 1", "value": "2.61 ± 1", "unit": "µM·h"}, {"measurement": "AUC", "setting": "[1]; 10 mg/kg, oral daily dose 10 mg/kg, read-out: AUC dose 4", "value": "2.62 ± 1.03", "unit": "µM·h"}, {"measurement": "AUC", "setting": "[1]; 30 mg/kg, oral daily dose 30 mg/kg, read-out: AUC dose 1", "value": "7.04 ± 1.53", "unit": "µM·h"}, {"measurement": "AUC", "setting": "[1]; 30 mg/kg, oral daily dose 30 mg/kg, read-out: AUC dose 4", "value": "5.17 ± 1.22", "unit": "µM·h"}, {"measurement": "delay to patency", "setting": "P. berghei sporozoites; [2]", "value": "> 4", "unit": "days"}, {"measurement": "sterile protection against blood infection", "setting": "P. berghei sporozoites; [2]", "value": 50, "unit": "%"}, {"measurement": "sterile protection against blood infection", "setting": "P. berghei sporozoites; i.v. sporozoites, 2 × 100 mpk oral", "value": 100, "unit": "%"}, {"measurement": "killing of liver stages and liver egress by 55 hpi", "setting": "P. berghei sporozoites; [3]", "value": "did not kill P. berghei liver stages or markedly prevent liver egress in vivo"}, {"measurement": "parasite liver infection at 52 hpi", "setting": "P. berghei sporozoites; [3]", "value": "no effect"}, {"measurement": "delay to patency", "setting": "P. berghei sporozoites; [4]", "value": 2, "unit": "days"}, {"measurement": "protection from blood infection", "setting": "P. berghei sporozoites; [4]", "value": "all mice developed blood infection"}, {"measurement": "delay to patency", "setting": "P. berghei sporozoites; [5]", "value": 5, "unit": "days"}, {"measurement": "sterile protection", "setting": "P. berghei sporozoites; [5]", "value": 80, "unit": "%"}, {"measurement": "protection from patent infection", "setting": "P. berghei sporozoites; mosquito bite infection, single dose 100 mpk at 36 hpi", "value": "protect all mice from developing patent infection"}, {"measurement": "protection from blood infection, prophylactic treatment", "setting": "P. berghei sporozoites; single dose 50 mpk 4 h before mosquito bite infection", "value": "did not confer any protection"}, {"measurement": "day post-infection from which parasites were detected", "setting": "P. berghei; WM382 1 mpk oral b.i.d. 4 days", "value": 2, "unit": "days"}, {"measurement": "day post-infection after which parasites were detectable", "setting": "P. berghei; WM382 3 mpk oral b.i.d. 4 days", "value": "> 12", "unit": "days"}, {"measurement": "outcome to day 30 post-infection", "setting": "P. berghei; WM382 3 mpk oral b.i.d. 4 days, n = 4", "value": "one mouse remaining parasite-free on day 30 pi"}, {"measurement": "outcome to day 30 post-infection", "setting": "P. berghei; WM382 10 mpk oral b.i.d. 4 days", "value": "remained parasite-free"}, {"measurement": "outcome to day 30 post-infection", "setting": "P. berghei; WM382 30 mpk oral b.i.d. 4 days", "value": "remained parasite-free"}, {"measurement": "outcome to day 30 post-infection", "setting": "P. berghei; WM382 oral q.d. 60, 30 or 10 mpk/day, 4 days", "value": "cured all mice"}]}]}
